PubChem BioAssay AID1963850 (Molecular Pharmacology Branch, DTP, NCI, 2024)

Test system: 192522-019-R-J2-PDC complex tumor spheroid viability
Assay: Anticancer human tumor 192522-019-R-J2-PDC patient-derived colon adenocarcinoma cell line growth inhibition [POLQ]
Conditions: for IC50: curve of first compound; for viability, T/C: stronger effect = lower value
Experimental: Multicellular complex tumor spheroid response to Polymerase (POL) inhibitors (novobiocin, ART-558, RP6685) in combination with a variety of drugs and investigational agents in selected tumor cell lines
The POL inhibitors (novobiocin, ART-558, and RP6685) were evaluated both individually and in combination with standard of care and investigational anticancer small molecules within a complex spheroid model of solid tumors. . Complex spheroids include a stromal component modeled by human endothelial cells (HUVEC) and fibroblasts modeled by human mesenchymal stem cells (MSCs). The concentration ranges selected for each drug and investigational agent were based upon clinically achievable concentrations if the clinical Cmax of the agent was known.
Compounds. The drugs and investigational agents: novobiocin (NSC847541), ART-558 (NSC835418), RP-6685 (NSC848927), peposertib (NSC802822), ceralasertib (NSC780249), elimusertib (NSC800525), camonsertib (NSC841442), AZD-1390 (NSC803789), olaparib (NSC753686), talazoparib (NSC767125), rucaparib (NSC756644), sotorasib (NSC818433), MRTX-1133 (NSC836407), SN-38 (NSC673596), topotecan (NSC609699), epotoside (NSC141540), doxorubicin (NSC123127), gemcitabine (NSC613327), 5-fluorouracil (NSC19893), paclitaxel (NSC125973), vemurafenib (NSC761431), MSA-2 (NSC828583), SN-011 (NSC837082), adavosertib (NSC754352), prexasertib (NSC758257), carboplatin (NSC241240) and oxaliplatin (NSC266046), were obtained from the National Cancer Institute (NCI) Developmental Therapeutics Program Chemical Repository (21). The FDA-approved anticancer drug set is available from the Developmental Therapeutics Program at https://dtp.cancer.gov/organization/dscb/obtaining/. […] The stock solutions were prepared in dimethyl sulfoxide (DMSO, Sigma-Aldrich, St. Louis, MO, cat. D2650), except for the platinum compounds which were prepared in saline (Quality Biological, Gaithersburg, MD, cat. 114-055-101), at 800-fold the tested concentration and stored at -70 degrees C prior to their use. All drugs and investigational agents were tested over a range starting from a high concentration at or near the clinical Cmax and decreasing in half-log increments. If the clinical Cmax for an agent had not been determined, the highest concentration tested was 10 microM, except for SN-38, which was tested at a high concentration of 1 microM.
Cell Culture. All cells were maintained in an incubator at 37 degrees C and 5% CO2 with 95% humidity. The PDC lines were cultured according to standard operating procedures established by the NCI PDMR (https://pdmr.cancer.gov). Table 3 of the manuscript, lists the cell lines along with the number of the three cell types plated to form the mct-spheroids and media for tumor cell growth. After thawing, all PDC lines, except 997537-175-T-J1-PDC and 415267-285-R-J2-PDC, were cultured in Matrigel-coated flasks prepared with a working solution of 1X Ham's F-12 nutrient mix, without supplementation (Thermo Fisher Scientific, cat. 11765054), 100 U/mL penicillin-streptomycin (Thermo Fisher Scientific, cat. 15140122), and 2.5% Matrigel (Corning Inc., Corning, NY, cat. 354248) for the first three passages. The two PDC lines 997537-175-T-J1-PDC and 415267-285-R-J2-PDC were cultured on uncoated flasks. The 857933-349-R-J2-PDC line was cultured in 6C/Colon 1B media containing advanced DMEM/F-12 (Thermo Fisher Scientific, cat. 12634028), 10 mM HEPES (Thermo Fisher Scientific, cat. 15630080), 1X GlutaMAX supplement (Thermo Fisher Scientific, cat. 35050061), 0.1 mg/mL primocin (InvivoGen, San Diego, CA, cat. ant-pm-2), 10% defined fetal bovine serum, heat inactivated (HyClone Laboratories Inc., Logan, UT, cat. SH30070.03HI), 50% L-WRN conditioned media (ATCC, cat. CRL-3276), 1.25 mM N-Acetyl-L-cysteine (Sigma-Aldrich, cat. A9165), 10 mM nicotinamide (Sigma-Aldrich, cat. N0636), 1X B-27 supplement (Thermo Fisher Scientific, cat. 17504044), 1X N-2 supplement (Thermo Fisher Scientific, cat. […]

[1] = second compound 0.0316 µM, first compound 0.00316 µM
[2] = second compound 0.0316 µM, first compound 0.01 µM
[3] = second compound 0.0316 µM, first compound 0.0316 µM
[4] = second compound 0.0316 µM, first compound 0.1 µM
[5] = second compound 0.0316 µM, first compound 0.316 µM
[6] = second compound 0.0316 µM, first compound 1 µM
[7] = second compound 0.1 µM, first compound 0.00316 µM
[8] = second compound 0.1 µM, first compound 0.01 µM
[9] = second compound 0.1 µM, first compound 0.0316 µM
[10] = second compound 0.1 µM, first compound 0.1 µM
[11] = second compound 0.1 µM, first compound 0.316 µM
[12] = second compound 0.1 µM, first compound 1 µM
[13] = second compound 0.316 µM, first compound 0.00316 µM
[14] = second compound 0.316 µM, first compound 0.01 µM
[15] = second compound 0.316 µM, first compound 0.0316 µM
[16] = second compound 0.316 µM, first compound 0.1 µM
[17] = second compound 0.316 µM, first compound 0.316 µM
[18] = second compound 0.316 µM, first compound 1 µM
[19] = second compound 1 µM, first compound 0.00316 µM
[20] = second compound 1 µM, first compound 0.01 µM
[21] = second compound 1 µM, first compound 0.0316 µM
[22] = second compound 1 µM, first compound 0.1 µM
[23] = second compound 1 µM, first compound 0.316 µM
[24] = second compound 1 µM, first compound 1 µM
[25] = second compound 3.16 µM, first compound 0.00316 µM
[26] = second compound 3.16 µM, first compound 0.01 µM
[27] = second compound 3.16 µM, first compound 0.0316 µM
[28] = second compound 3.16 µM, first compound 0.1 µM
[29] = second compound 3.16 µM, first compound 0.316 µM
[30] = second compound 3.16 µM, first compound 1 µM
[31] = second compound 10 µM, first compound 0.00316 µM
[32] = second compound 10 µM, first compound 0.01 µM
[33] = second compound 10 µM, first compound 0.0316 µM
[34] = second compound 10 µM, first compound 0.1 µM
[35] = second compound 10 µM, first compound 0.316 µM
[36] = second compound 10 µM, first compound 1 µM
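Further: spheroids exposed to drugs for seven days before reading.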
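Wherever viability, T/C is given: 100% = DMSO vehicle control viability in luminescence.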

SMILES: C=CCn1c(=O)c2cnc(Nc3ccc(N4CCN(C)CC4)cc3)nc2n1-c1cccc(C(C)(C)O)n1 + Cc1cccc(N(C)C(=O)C2C(O)CCN2c2nc(C)cc(C(F)(F)F)c2C#N)c1
- IC50 (second compound 0.0316 µM): 796 nM
- IC50 (second compound 0.1 µM): 812 nM
- IC50 (second compound 0.316 µM): 893 nM
- IC50 (second compound 1 µM): > 1000 nM
- IC50 (second compound 3.16 µM): > 1000 nM
- IC50 (second compound 10 µM): 916 nM
- viability, T/C [1]: 98.9%
- viability, T/C [2]: 106%
- viability, T/C [3]: 102%
- viability, T/C [4]: 108%
- viability, T/C [5]: 92.6%
- viability, T/C [6]: 39.5%
- viability, T/C [7]: 99.7%
- viability, T/C [8]: 99.3%
- viability, T/C [9]: 102%
- viability, T/C [10]: 106%
- viability, T/C [11]: 90%
- viability, T/C [12]: 40.4%
- viability, T/C [13]: 111%
- viability, T/C [14]: 110%
- viability, T/C [15]: 105%
- viability, T/C [16]: 110%
- viability, T/C [17]: 98.6%
- viability, T/C [18]: 44.4%
- viability, T/C [19]: 112%
- viability, T/C [20]: 95.2%
- viability, T/C [21]: 107%
- viability, T/C [22]: 109%
- viability, T/C [23]: 105%
- viability, T/C [24]: 50.4%
- viability, T/C [25]: 116%
- viability, T/C [26]: 110%
- viability, T/C [27]: 109%
- viability, T/C [28]: 106%
- viability, T/C [29]: 89%
- viability, T/C [30]: 56.9%
- viability, T/C [31]: 109%
- viability, T/C [32]: 115%
- viability, T/C [33]: 119%
- viability, T/C [34]: 105%
- viability, T/C [35]: 102%
- viability, T/C [36]: 45.6%

SMILES: CC(=O)O[C@H]1C(=O)[C@@]2(C)[C@H]([C@H](OC(=O)c3ccccc3)[C@]3(O)C[C@H](OC(=O)[C@H](O)[C@@H](NC(=O)c4ccccc4)c4ccccc4)C(C)=C1C3(C)C)[C@]1(OC(C)=O)CO[C@@H]1C[C@@H]2O + Cc1cccc(N(C)C(=O)C2C(O)CCN2c2nc(C)cc(C(F)(F)F)c2C#N)c1
- IC50 (second compound 0.0316 µM): > 3000 nM
- IC50 (second compound 0.1 µM): > 3000 nM
- IC50 (second compound 0.316 µM): > 3000 nM
- IC50 (second compound 1 µM): > 3000 nM
- IC50 (second compound 3.16 µM): > 3000 nM
- IC50 (second compound 10 µM): > 3000 nM
- viability, T/C (second compound 0.0316 µM, first compound 0.00949 µM): 90%
- viability, T/C (second compound 0.0316 µM, first compound 0.03 µM): 69.4%
- viability, T/C (second compound 0.0316 µM, first compound 0.0949 µM): 52.2%
- viability, T/C (second compound 0.0316 µM, first compound 0.3 µM): 59%
- viability, T/C (second compound 0.0316 µM, first compound 0.949 µM): 56.8%
- viability, T/C (second compound 0.0316 µM, first compound 3 µM): 54.7%
- viability, T/C (second compound 0.1 µM, first compound 0.00949 µM): 98.5%
- viability, T/C (second compound 0.1 µM, first compound 0.03 µM): 74.3%
- viability, T/C (second compound 0.1 µM, first compound 0.0949 µM): 53.1%
- viability, T/C (second compound 0.1 µM, first compound 0.3 µM): 64.4%
- viability, T/C (second compound 0.1 µM, first compound 0.949 µM): 60.4%
- viability, T/C (second compound 0.1 µM, first compound 3 µM): 57.9%
- viability, T/C (second compound 0.316 µM, first compound 0.00949 µM): 92.1%
- viability, T/C (second compound 0.316 µM, first compound 0.03 µM): 79.5%
- viability, T/C (second compound 0.316 µM, first compound 0.0949 µM): 61.8%
- viability, T/C (second compound 0.316 µM, first compound 0.3 µM): 58.4%
- viability, T/C (second compound 0.316 µM, first compound 0.949 µM): 64.3%
- viability, T/C (second compound 0.316 µM, first compound 3 µM): 62.4%
- viability, T/C (second compound 1 µM, first compound 0.00949 µM): 102%
- viability, T/C (second compound 1 µM, first compound 0.03 µM): 84%
- viability, T/C (second compound 1 µM, first compound 0.0949 µM): 61.1%
- viability, T/C (second compound 1 µM, first compound 0.3 µM): 60.3%
- viability, T/C (second compound 1 µM, first compound 0.949 µM): 54.3%
- viability, T/C (second compound 1 µM, first compound 3 µM): 55.5%
- viability, T/C (second compound 3.16 µM, first compound 0.00949 µM): 105%
- viability, T/C (second compound 3.16 µM, first compound 0.03 µM): 79.8%
- viability, T/C (second compound 3.16 µM, first compound 0.0949 µM): 61.8%
- viability, T/C (second compound 3.16 µM, first compound 0.3 µM): 59.5%
- viability, T/C (second compound 3.16 µM, first compound 0.949 µM): 65.8%
- viability, T/C (second compound 3.16 µM, first compound 3 µM): 57.4%
- viability, T/C (second compound 10 µM, first compound 0.00949 µM): 94%
- viability, T/C (second compound 10 µM, first compound 0.03 µM): 67.8%
- viability, T/C (second compound 10 µM, first compound 0.0949 µM): 58.3%
- viability, T/C (second compound 10 µM, first compound 0.3 µM): 58.9%
- viability, T/C (second compound 10 µM, first compound 0.949 µM): 56.8%
- viability, T/C (second compound 10 µM, first compound 3 µM): 63.3%

SMILES: COc1cccc(OCCCN)c1-c1cc(Nc2cnc(C#N)cn2)n[nH]1 + Cc1cccc(N(C)C(=O)C2C(O)CCN2c2nc(C)cc(C(F)(F)F)c2C#N)c1
- IC50 (second compound 0.0316 µM): 28.3 nM
- IC50 (second compound 0.1 µM): 30.1 nM
- IC50 (second compound 0.316 µM): 48.4 nM
- IC50 (second compound 1 µM): 71.6 nM
- IC50 (second compound 3.16 µM): 59.1 nM
- IC50 (second compound 10 µM): 54.6 nM
- viability, T/C [1]: 91.4%
- viability, T/C [2]: 92.1%
- viability, T/C [3]: 45.4%
- viability, T/C [4]: 41%
- viability, T/C [5]: 39.8%
- viability, T/C [6]: 38%
- viability, T/C [7]: 107%
- viability, T/C [8]: 83.4%
- viability, T/C [9]: 49.5%
- viability, T/C [10]: 35.5%
- viability, T/C [11]: 41.1%
- viability, T/C [12]: 39%
- viability, T/C [13]: 100%
- viability, T/C [14]: 86.2%
- viability, T/C [15]: 54%
- viability, T/C [16]: 44%
- viability, T/C [17]: 38.1%
- viability, T/C [18]: 43.4%
- viability, T/C [19]: 115%
- viability, T/C [20]: 97.4%
- viability, T/C [21]: 62%
- viability, T/C [22]: 44.9%
- viability, T/C [23]: 45.3%
- viability, T/C [24]: 36.8%
- viability, T/C [25]: 108%
- viability, T/C [26]: 99.2%
- viability, T/C [27]: 58.8%
- viability, T/C [28]: 41.5%
- viability, T/C [29]: 44.1%
- viability, T/C [30]: 39.9%
- viability, T/C [31]: 105%
- viability, T/C [32]: 89.4%
- viability, T/C [33]: 53%
- viability, T/C [34]: 47.2%
- viability, T/C [35]: 48%
- viability, T/C [36]: 43.6%
